Measured values reported in publication PMC5318439, “The Novel Toll-Like Receptor 2 Agonist SUP3 Enhances Antigen Presentation and T Cell Activation by Dendritic Cells” (Frontiers in Immunology, 2017).
Where a SMILES comes first, the peptide text is derived from it. The star is where a group is joined. X1 = CCCCCCCCCCCCCCNC(=O)OC[C@H](C*)OC(=O)NCCCCCCCCCCCCCC; Palmitoyl = CCCCCCCCCCCCCCCC(=O)*

Legend:
[1] = test system: OVA-specific CD8^+ T cells; test: OCS immunization, OVA-specific CD8+ T cells (CTL induction) in spleen; assay type: in vivo, C57BL/6 mice; details: 10 nmol, data not shown; for CTL induction at high dose: OCS immunization; for spleen size at high dose: mice
Description: Splenocytes were X-ray irradiated (1500 Rad) and then coated with OVA (1 mg per spleen) in RPMI 1640 medium (Gibco 11875-119) for 30 min at 37°C. Cells were washed twice with RPMI 1640 medium. […] Seven days post-immunization, OVA-specific CD8^+ T cells in spleen were analyzed by flow cytometry by staining with fluorescence-conjugated antibodies against CD19 (eBioscinece, clone 1D3), CD3 (eBioscinece, clone 145-2C11), CD8 (eBioscinece, clone 53-6.7), and SIINFEKL/H-2Kb-Pentamer (ProImmune F093-4A).
Figure 2 SUP3 induced more vigorous cytotoxic T lymphocytes (CTLs) responses than Pam3CSK4 without excessive production of inflammatory cytokines in vivo. […] The percentages of pentamer positive cells (CD19^− CD3^+ CD8^+ SIINFEKL/H-2Kb-Pentamer^+) in spleens, i.e., the OVA-specific CD8^+ T cells, were determined by flow cytometry (A) and the statistic calculation is presented in (B). Representative data from three independent experiments with three mice in each group were presented. (C,D) Mice were immunized as in (A) for 30 days, then inoculated with OVA-expressing B16 melanoma cells (B16-OVA) (5 × 10^5 cells per mouse) by i.v. injection and analyzed for metastatic tumor formation in the lung 16 days after inoculation. Data from two independent experiments with three mice in each group were shown. […] “n.d.” indicates “not detected.” *p < 0.05, **p < 0.01. TEXT PRINTED IN THE PICTURE: (A) Pam3: Pentamer^+ (% of CD8^+ T): 1.57 (OCS) | (A) SUP3: Pentamer^+ (% of CD8^+ T): 2.98 (OCS) | (E) Pam3: IL-12p40 (ng/mL): n.d | (E) SUP3: IL-12p40 (ng/mL): n.d DOUBTS OF THE COPYIST ABOUT THIS PICTURE: Panel A also prints 0.37 for the control Non and 0.72 for the vehicle control PBS (OCS). Both are left out because they are controls, not test substances. / Panel E prints n.d for the vehicle control PBS in all four plots. These are left out for the same reason.

[2] = test system: splenic B cells; test: B cell activation markers in vitro; assay type: cell-based, mice; details: 200 nM, 2 × 10^6 cells/mL, 24 h
Excerpt: Splenic DCs were purified as described previously ([37]). CD8^+ cDCs expanded by B16-Flt3L inoculation were enriched, and then CD8^+ cDCs were positively sorted by MACS technology (Miltenyi Biotec). Splenic B cells were purified through negative selection by Streptavidin-MicroBeads (Miltenyi Biotec 130-048-102) combined with different antibodies cocktail to exclude non-B cells. The antibodies cocktail was composed of biotinylated antibodies against CD4 (T cells and DCs) (eBioscience, clone GK1.5), CD8 (T cells and DCs) (eBioscience, clone 53-6.7), CD43 (T cells, monocytes, granulocytes) (eBioscience, clone eBioR2/60), and Ter119 (erythrocytes) (eBioscience, clone TER119). B cells were further purified through MACS LS column (Miltenyi Biotec 130-042-401).
Figure 7 SUP3 promoted stronger B cell activation in vitro. Purified splenic B cells (2 × 10^6 cells/mL) were treated with SUP3 (200 nM), Pam3 (200 nM), or lipopolysaccharide (LPS) (1.5 µg/mL), respectively. (A) Surface CD25, CD40, and CD86 were stained 24 h post-stimulation. (B) Supernatants were harvested 3 or 5 days post-stimulation, and total IgM in the supernatant was determined by ELISA. Representative data was from two independent experiments with triplicated wells in each group (**p < 0.01).

[3] = Serum inflammatory cytokines after i.v. administration; assay type: in vivo, mice; details: 2 nmol per mouse i.v., 1 h, ELISA
Description: Splenic DCs (5 × 10^5 cells/mL) were stimulated by Pam3 (200 nM), SUP3 (200 nM), or CpG ODN 1668 (20 nM; Adipogen IAX-200-001) in the GM-CSF (20 ng/mL) supplemented medium for indicated periods. Cell culture supernatants were harvested at indicated time points and stored at −40°C. RAW 264.7 cells and GMDCs were stimulated by lipopolysaccharide (LPS) (20 ng/mL; Adipogen IAX-100-013), Pam3, or SUP3 (both at 200 nM) for 24 h. For in vivo administration, Pam3 (2 nmol per mouse), SUP3 (2 nmol per mouse), or LPS (1 µg per mouse) were intravenously (i.v.) injected via tail veins. Serum was obtained through tail vein bleeding and centrifuged after coagulation and stored at −40°C. Cytokines (IL-6, eBioscience 88-7064; TNFα, eBioscience 88-7324; IL-12p40, BioLegend 431604), chemokine (MIP1α, R&D Systems DY450-05), and total IgM (eBioscience, 88-50470) were quantified by ELISA kits following the instructions of manufacturers.
Figure 2 SUP3 induced more vigorous cytotoxic T lymphocytes (CTLs) responses than Pam3CSK4 without excessive production of inflammatory cytokines in vivo. […] The percentages of pentamer positive cells (CD19^− CD3^+ CD8^+ SIINFEKL/H-2Kb-Pentamer^+) in spleens, i.e., the OVA-specific CD8^+ T cells, were determined by flow cytometry (A) and the statistic calculation is presented in (B). […] “n.d.” indicates “not detected.” *p < 0.05, **p < 0.01. […]

spleen size at high dose [1]	serum IL-6, TNFα, IL-12p40 and MIP1α levels [3]	Compound	CTL induction at high dose [1]	CD25, CD40, and CD86 on B lymphocytes [2]
enlarged spleens	maintained at low levels	CCCCCCCCCCCCCCCC(=O)N[C@@H](CSC[C@@H](COC(=O)NCCCCCCCCCCCCCC)OC(=O)NCCCCCCCCCCCCCC)C(=O)NCC(=O)N[C@@H](CCCCN)C(=O)N[C@@H](CCCCN)C(=O)N[C@@H](CCCCN)C(=O)O [SUP3, (2S,5S,8S,14R,18R)-2,5,8-tris(4-aminobutyl)-4,7,10,13,21-pentaoxo-14-palmitamido-18-((tetradecylcarbamoyl)oxy)-20-oxa-16-thia-3,6,9,12,22-pentaazahexatriacontan-1-oic acid] (Palmitoyl-C(X1)GKKK-OH)	decreased CTL induction	marked upregulation
did not have the same effect	maintained at low levels	Pam3CSK4 [reference compound]	did not have the same effect	marked upregulation
